According to patent US20260130864A1, “METHOD AND COMPOSITION FOR ENHANCING EXERCISE PERFORMANCE” (NANJING NUTRABUILDING BIO-TECH CO., LTD., priority 2023, published 2026):

Legend:
Format in all cases: in vivo
[1] = treadmill exercise endurance of mice after 4 weeks administration; details: for running distance on treadmill when exhausted (exercise endurance): Swiss male mice, control 948 m
Description: (§1) Twenty-four pure Swiss male mice were randomly divided into three groups, with 8 mice in each group, and were given food and water freely under the light and dark cycle of 12:12 hours. The first group was the control group (group 1, no DHZ), the second group was given by gavage 50 mg/kg DHZ (group 2), and the third group was given by gavage 100 mg/kg DHZ (group 3). DHZ solution was prepared with 5% DMSO, 25% PEG-400, 30% propylene glycol and 40% normal saline. All the mice were administered at a dose of 10 mL/kg body weight for 4 weeks. 4 weeks later, these mice were made to run on treadmill voluntarily for exercise analysis, and the running distance of each of mice when exhausted was recorded. All the mice were untrained before exercise. Each group was perfused with paraformaldehyde, and brain tissue was frozen in liquid nitrogen for ELISA, and then dopamine was detected. The cecal feces of mice were collected and the flora was sequenced by 16s. The proportion of different bacteria in feces was obtained, and the DNA in feces was extracted to detect the copy number of Eubacterium rectale and Coprococcus eutactus. The statistical analysis of data was conducted by unpaired t-test, and * indicates significant difference. Compared with the control group, * means p<0.05; ** means p<0.01; *** means p<0.001; **** means p<0.0001.

dopamine = dopamine content in the brain of mice (ELISA); details: 4 weeks; for dopamine content in the brain: control 3,293 ng/g brain
Description: as §1

Eubacterium rectale = test: bacterial copy number of Eubacterium rectale in cecal feces of mice; details: after 4 weeks of DHZ administration
Description: as §1, with “p<0.0001. […]” for “p<0.0001.”

Coprococcus eutactus = test: bacterial copy number of Coprococcus eutactus in cecal feces of mice; details: after 4 weeks of DHZ administration
Description: as §1, with “p<0.0001. […]” for “p<0.0001.”

[2] = high dose group (100 mg/kg by gavage)

Compound: COc1cc(/C=C/C(C)=O)ccc1O [DHZ, Dehydrozingerone]
- running distance on treadmill when exhausted (exercise endurance) ([1]; 50 mg/kg DHZ by gavage (low-dose group)): 1112 m
- running distance on treadmill when exhausted (exercise endurance) ([1]; 100 mg/kg DHZ by gavage (high-dose group)): 1367 m
- exercise performance higher than that of control group ([1]; high-dose group (100 mg/kg by gavage)): 44%
- brain dopamine level, times higher than in the control group (dopamine; [2]): 5 times
- dopamine content in the brain (dopamine; [2]): 19,988 ng/g brain
- dopamine content in the brain (dopamine; low dose group (50 mg/kg by gavage)): 16,285 ng/g brain
- increase of number (copy number) of Eubacterium rectale compared with the control group (Eubacterium rectale): about 3 times
- increase of number (copy number) of Coprococcus eutactus compared with the control group (Coprococcus eutactus): about 3 times
